In patent US20100093613A1, “METHODS FOR IDENTIFYING AGENTS AND THEIR USE FOR THE PREVENTION OR STABILIZATION OF FIBROSIS” (priority 2007, published 2010):

Experiments:
Type in all cases: cell-based, human
[1] = tested on: Bronchial epithelial cells; assay: BioMAP BE3C system (IL-1β + TNF-α + IFN-γ), scoring of readout parameters; conditions: for PAI-1 score: desired change decrease; for EGFR score: desired no change or increase
Excerpt: (§1) Each screened compound is scored according to its modulation of the selected readout parameters. Compounds receive a positive score (score of 1) or negative score (score of 0) for each readout parameter set forth in Table 2 that is modulated in the desired direction. […] Parameters may be penalized by making the positive score a −1 for parameters where regulation is opposite to the desired direction.
(§2) Cell culture. Human umbilical vein endothelial cells (HUVEC) were pooled from multiple donors, cultured according to standard methods, and plated into microtiter plates at passage 4. Cell culture medium for all systems containing HUVEC included hydrocortisone. Coronary artery smooth muscle cells (CASM3C) and umbilical artery smooth muscle cells (HSM3C) were cultured according to standard procedures. Peripheral blood mononuclear cells (PBMC) were prepared from buffy coats from normal human donors according to standard methods. Monocyte-derived macrophages were differentiated in the presence of M-CSF for 7 d according to standard procedures. Human dermal fibroblasts were pooled from 3 donors, cultured according to standard methods, and plated confluent 24 h before stimulation. Cell culture medium for all systems containing fibroblasts and keratinocytes contained low hydrocortisone. Epidermal keratinocytes and bronchial epithelial cells from 3 donors were cultured according to standard procedures and pooled when plated into microtiter plates. For keratinocyte-fibroblast co-cultures, cells were plated simultaneously 24 h before stimulation. For bronchial epithelial cell-fibroblast co-cultures, fibroblasts were plated and cultured 48 before addition of epithelial cells, then cultured another 24 hr before stimulation. Concentrations/amounts of agents added to confluent microtiter plates to build each system: cytokines (IL-1β, 1 ng/ml; TNF-α, 5 ng/ml; IFN-γ, 20 ng/ml; IL-4, 5 ng/ml), activators (SAg, 20 ng/ml; histamine, 10 μM; zymosan, 10 μg/ml; or LPS, 2 ng/ml), growth factors (TGF-β, 5 ng/ml; EGF, bFGF, and PDGF-BB, 10 ng/ml), and PBMC (7.5×10^4 cells/well) or macrophages (3.5×10^4 cells/well).
(§3) Compounds. Compounds were prepared in the solvent directed, added 1 hr before stimulation of the cells, and were present during the 24 hr stimulation period for the measurement of parameters listed in Table 2. For proliferation, compounds added 1 hr before stimulation of the cells with cytokines, and were present during the 48 to 72 hr assay. If prepared in DMSO, the final concentration of solvent was 0.1% or less.
(§4) Readout Parameter Measurements. The levels of readout parameters were measured by ELISA. Briefly, microtiter plates are treated, blocked, and then incubated with primary antibodies or isotype control antibodies (0.01-0.5 microg/ml) for 1 hr. After washing, plates were incubated with a peroxidase-conjugated anti-mouse IgG secondary antibody or a biotin-conjugated anti-mouse IgG antibody for 1 hr followed by streptavidin-HRP for 30 min. Plates were washed and developed with TMB substrate and the absorbance (OD) was read at 450 nm (subtracting the background absorbance at 650 nm). Quantitation of TNF-alpha or PGE2 in the LPS system was done using a commercially available kit according to the manufacturer's directions. Proliferation of endothelial cells (HUVEC and CAEC), smooth muscle cells (SMC and CASMC), and PBMC (T cells) was quantitated by Alamar Blue reduction or SRB.
(§5) Data analysis. Mean OD values for each parameter were calculated for compounds run in duplicate. The mean value (or single well OD value) for each parameter in a treated sample was then divided by the mean value from an appropriate control to generate a ratio. All ratios were then log10 transformed. 95% significance prediction envelopes (grey shading in Figures) were calculated for historical controls.

[2] = tested on: Bronchial epithelial cells; assay: BioMAP BE4T system (IL-4 + TNF-a), scoring of readout parameters; design: key: 1 = modulated in desired direction, 0 = not (−1 = opposite); conditions: for PAI-1 score: desired change decrease; for EGFR score: desired no change or increase
Method: In the “BE4T” system, bronchial epithelial cells, usually primary human bronchial epithelial cells, are cultured in the presence of TNF-α and IL-4.
as §1, §2, §3, §4, §5

Fibroblasts [3] = assay: BioMAP HDF3CGF system (IL-1β + TNF-α + IFN-γ + EGF + bFGF + PDGFbb), scoring of readout parameters; conditions: for PAI-1 score: desired change decrease; for MMP-1 score: desired change increase; for EGFR score: desired no change or increase
Method: In the “HDF-3CGF” system, dermal fibroblast cells, usually primary human dermal fibroblast cells are cultured alone or in the presence of lung epithelial cells, usually primary human lung epithelial cells, with two or more factors selected from: TNF, IL-1, IFNγ, EGF, bFGF+HSPG (heparan sulfate proteoglycan), and PDGFbb. In some embodiments three or more factors are present, four or more, five or more, or all six factors are present.
Human neonatal dermal fibroblasts (HDFn) or adult lung fibroblasts (HDFp) or fibroblasts from tissues such as liver, heart, or kidney are used. Cells are cultured at 3×10^4 cells/ml in DMEM/F12 (50/50) from Cellgro, supplemented with LSGS kit (from Cascade Biologics); fetal bovine serum, 2% v/v, hydrocortisone 100 nM, human epidermal growth factor 10 ng/ml, basic fibroblast growth factor 3 ng/ml and heparin 10 μg/ml, and penicillin/streptomycin amphotericin B solution (PSA), until confluency. Medium is replaced with DMEM/F12 with only penicillin/streptomycin amphotericin B solution (PSA), then 24 hours later, the following are applied:
After another 24, 48 or 72 hours incubation (37° C., 5% CO2) the cultures are evaluated for the following parameters: ICAM, VCAM, CD40, CD90, IP-10, MCP-1, Collagen I, Mig, m-CSF, TIMP-2, PAI-I, IL-8, Collagen III, HLA-DR, MMP-1, MMP-9, proliferation, TGF-b1, eotaxin-3, decorin, alpha-SMC, MLCK, I-TAC, EGFR, TIMP-1.
Cell culture. […] Human dermal fibroblasts were pooled from 3 donors, cultured according to standard methods, and plated confluent 24 h before stimulation. Cell culture medium for all systems containing fibroblasts and keratinocytes contained low hydrocortisone. […] Concentrations/amounts of agents added to confluent microtiter plates to build each system: cytokines (IL-1β, 1 ng/ml; TNF-α, 5 ng/ml; IFN-γ, 20 ng/ml; IL-4, 5 ng/ml), activators (SAg, 20 ng/ml; histamine, 10 μM; zymosan, 10 μg/ml; or LPS, 2 ng/ml), growth factors (TGF-β, 5 ng/ml; EGF, bFGF, and PDGF-BB, 10 ng/ml), and PBMC (7.5×10^4 cells/well) or macrophages (3.5×10^4 cells/well).

Fibroblasts [4] = assay: BioMAP HDFT system (TGF-β), scoring of readout parameters; design: key to PAI-1 score: 1 = modulated in desired direction, 0 = not (no penalties applied); conditions: for PAI-1 score: HDFT, desired change decrease; for inhibit PAI-1 in the HDFT system: indication of TGF-b signaling inhibition without being cytotoxic
Excerpt: as §1
Compounds were first selected to inhibit PAI-1 in the HDFT as an indication of TBF-b signaling inhibition without being cytotoxic. […] Blank spots in Table 3 were where parameter was not assayed. Penalties were not applied for this scoring.
as §2, §3, §4
Data analysis. Mean OD values for each parameter were calculated for compounds run in duplicate. The mean value (or single well OD value) for each parameter in a treated sample was then divided by the mean value from an appropriate control to generate a ratio.

Fibroblasts [5] = assay: BioMAP HDF3CT system (IL-1β + TNF-α + IFN-γ + TGF-β), scoring of readout parameters
Excerpt: as §1, §2, §3, §4, §5

Molecule	HLA-DR score [1]	MMP-1 score [1]	uPA score [1]	PAI-1 score [1]	EGFR score [1]	uPA score [2]	PAI-1 score [2]	EGFR score [2]	PAI-1 score (Fibroblasts [3])	MMP-1 score (Fibroblasts [3])	EGFR score (Fibroblasts [3])	PAI-1 score (Fibroblasts [4])	inhibit PAI-1 in the HDFT system (Fibroblasts [4])	MMP-1 score (Fibroblasts [5])
COc1cc2c(c(OC)c1OC)-c1ccc(OC)c(=O)cc1[C@@H](NC(C)=O)CC2 [Colchicine]	0	0	0	0	0	1	0	0	0	0	0	0	none of these inhibit PAI-1	0
CCc1oc2ccccc2c1C(=O)c1cc(Br)c(O)c(Br)c1 [Benzbromarone]	0	1	0	1	0	1	0	0	1	0	0	1		0
Fc1ccc(C(OCCN2CCN(CCCc3ccccc3)CC2)c2ccc(F)cc2)cc1 [GBR 12909]	0	1	0	0	0	0	0	0	1	0	0	1		0
Antimycin A	0	0	0	1	0	0	1	0	1	0	0	1		0
COc1cc(-c2ccc(=O)[nH]n2)ccc1OC(F)F [Zardaverine]	0	0	0	0	0	0	0	0	1	0	0	1		0
C[C@]12C=CC(=O)C=C1CC[C@@H]1[C@@H]2[C@@H](O)C[C@@]2(C)[C@H]1CC[C@]2(O)C(=O)CO [Prednisolone]	0	0	0	0	0	0	0	0	0	0	0	0	none of these inhibit PAI-1	0
O=C(O)c1ccccc1Nc1cccc(C(F)(F)F)c1 [Flufenamic Acid]	0	0	0	1	0	0	1	0	0	0	0	1		1
O=c1cc(-c2ccc(O)c(O)c2)oc2cc(O)cc(O)c12 [Luteolin]	0	0	0	0	0	0	0	0	1	0	0	1		0
COC(=O)Nc1nc2ccc(SC(C)C)cc2[nH]1 [Methiazole]	0	0	0	1	0	0	1	0	1	0	0	1		0
CCN(CC)CCNc1ccc(CO)c2sc3ccccc3c(=O)c12 [Hycanthone]	0	0	0	1	0	0	1	0	1	0	0	1		0
Cn1cnc([N+](=O)[O-])c1Sc1ncnc2nc[nH]c12 [Azathioprine]	0	0	0	0	0	0	0	0	0	0	0	0	none of these inhibit PAI-1	0
Cc1c(Cl)cccc1Nc1ccccc1C(=O)O [Tolfenamic Acid]	0	1	0	1	0	0	0	0	0	0	0	1		1
C=C1CC[C@H](O)C/C1=C/C=C1\CCC[C@]2(C)[C@@H]([C@H](C)/C=C/[C@H](C)C(C)C)CC[C@@H]12 [Calciferol]	0	1	0	0	0	1	0	0	1	0	0	1		0
CCCCN(CCCC)CCC(O)c1cc2c(Cl)cc(Cl)cc2c2cc(C(F)(F)F)ccc12 (stereo not drawn) [Halofantrine]	0	1	0	0	0	0	0	0	1	0	0	1		0
(R)-(−)-Apomorphine	1	0	0	1	0	0	0	0	1	0	0	1		0
